Results taken from patent US4533553A, “Polycyclic ether antibiotic” (priority 1983, dated 1985).

How the values were obtained:
Eimeria tenella = assay: efficacy against coccidial infections in chickens; assay type: in vivo; conditions: for Average degree of Infection: lesion score 0 to 4
Protocol: Efficacy data for Antibiotic Compound 53,607 and its salts against coccidial infections in chickens was obtained in the following fashion. Groups of 3-5 ten-day old SPF white leghorn cockerel chicks were fed a mash diet containing Antibiotic Compound 53,607 or its sodium and/or potassium salt uniformly dispersed therein. After being on this ration for 24 hours each chick was inoculated per os with oocysts of the particular species of Eimeria being tested. Other groups of 3-5 ten-day old chicks were fed a similar mash diet free of Antibiotic Compound 53,607 or its salts. They were also infected after 24 hours and served as infected controls. Yet other groups of 3-5 ten-day old chicks were fed the mash diet free of Antibiotic Compound 53,607 and were not infected with coccidia. These served as normal controls. The results of treatment were evaluated after five days in the case of E. acervulina, and six days for all other challenges.
^1 The criteria used to measure anticoccidial activity consisted of
lesion scores of 0 to 4 for E. tenella after J. E. Lynch "A New Method fo
the Primary Evaluation of Anticoccidial Activity." , Am. J. Vet. Res.
22:324-326 (1961); and 0 to 3 for the other species based on modification
of the scoring system devised by J. Johnson and W. H. Reid, "Anticoccidia
drugs. Lesion Scoring Techniques in Battery and Floor Pen Experiments in
Chicks.", Exp. Parasit. 28: 30-36(1970). A constant ratio was established
by dividing the lesion score of each treated group by the lesion score of […]

solubility = assay type: physicochemical
[1] = tested on: Gram-positive microorganisms; assay: inhibitory action against growth of Gram-positive microorganisms; assay type: cell-based; conditions: in vitro
Protocol: In Table I, below, the results of in vitro MIC tests are summarized. For this test each organism is inoculated in a series of test tubes containing nutrient medium and varying concentrations of Compound 53,607 to determine the minimal concentration of the antibiotic in mcg/ml which inhibits the growth of the organism over a period of 24 hours (MIC).

[2] = 25 ppm in diet, value in parentheses (not explained)
[3] = 50 ppm in diet, value in parentheses (not explained)
[4] = 100 ppm in diet, value in parentheses (not explained)

For CC(=CC(C)C1OC2(CCC(C)(C3CCC(C)C4(OC(C5OC(O)(CO)C(C)CC5C)CC4C)O3)O2)CC(O)C1C)C(=O)C(C)CC(C)C(=O)O (stereo not shown) [Antibiotic Compound 53,607], the “Average degree of Infection” value (Eimeria tenella; 25 ppm in diet, six days) was 3.0, the Ratio (Eimeria tenella; 25 ppm in diet, lesion score treated / infected control) was 0.95 and the “Weight Gain” value (Eimeria tenella; 25 ppm in diet, six days) was 47%. The Ratio (Eimeria tenella; [2]) was 0.49, the “Weight Gain” value (Eimeria tenella; [2]) was 102% and the “Average degree of Infection” value (Eimeria tenella; [2]) was 1.7. For the same compound, the “Average degree of Infection” value (Eimeria tenella; 50 ppm in diet, six days) was 2.7, the Ratio (Eimeria tenella; 50 ppm in diet, lesion score treated / infected control) was 0.86 and the “Weight Gain” value (Eimeria tenella; 50 ppm in diet, six days) was 22%. The Ratio (Eimeria tenella; [3]) was 0.09, the “Weight Gain” value (Eimeria tenella; [3]) was 97% and the “Average degree of Infection” value (Eimeria tenella; [3]) was 0.3. The “Average degree of Infection” value (Eimeria tenella; 100 ppm in diet, six days) was 1.0, the Ratio (Eimeria tenella; 100 ppm in diet, lesion score treated / infected control) was 0.32 and the “Weight Gain” value (Eimeria tenella; 100 ppm in diet, six days) was 57%. For the same compound, the Ratio (Eimeria tenella; [4]) was 0.37, the “Weight Gain” value (Eimeria tenella; [4]) was 60% and the “Average degree of Infection” value (Eimeria tenella; [4]) was 1.3. The “Average degree of Infection” value (Eimeria tenella; 200 ppm in diet, six days) was 1.3, the Ratio (Eimeria tenella; 200 ppm in diet, lesion score treated / infected control) was 0.41 and the “Weight Gain” value (Eimeria tenella; 200 ppm in diet, six days) was 37%. The controlling infections (Eimeria tenella; chickens, diet, 50 to 200 ppm) was “effective in controlling infections”, the solubility in chloroform (solubility; chloroform) was “soluble” and the “solubility in ethyl acetate” value (solubility; ethyl acetate) was “soluble”. The solubility in methanol (solubility; methanol) was “soluble”, the “solubility in methylisobutyl ketone” value (solubility; methylisobutyl ketone) was “soluble” and the solubility in water (solubility; water) was “insoluble”. For the same compound, the “inhibitory action against growth” value [1] was “exhibits inhibitory action”.
